Reference: ChEMBL document CHEMBL1201862, “PubChem BioAssay data set” (2004)
Active and inactive are the calls of the source.

Tests used:
[1] = blockers of HIV-1 envelope-mediated cell-cell fusion – cherry-pick, dose response (AID 652057); format: functional, cell-based
[2] = blockers of HIV-1 ZM109 envelope-driven cell-cell fusion – HeLa effector, CEM target cells, luciferase, cherry-pick, dose response (AID 652058); format: functional, cell-based;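 also: luciferase signal from HIV-1 Env mediated cell-cell fusion of effector and target cells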
[3] = off-target signal loss in HeLa-CEM21 co-culture – HeLa F-luc CTL cells, cherry-picked, counter-screen for HIV-1 Env fusion inhibitor project, dose response (AID 652040); format: functional, cell-based;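 also: potency for signal decrease marking cytotoxic or nonspecific inhibition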
[4] = HIV-1 AD8 envelope cell-cell fusion blockers – cherry-pick, dose response (AID 652062); format: functional, cell-based;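 also: luciferase signal from cell-cell fusion driven by HIV-1 clade B AD8 Env; potency is for inhibitors of fusion seen as a drop in luminescence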
Genome polyprotein = Genome polyprotein (dengue virus type 2, UniProt P29990); assay: flavivirus cap methylation enzyme inhibition – biochemical, confirmation dose response, primary screen (AID 588689); format: functional
Cytochrome P450 2C19 = Cytochrome P450 2C19 (Homo sapiens, UniProt P33261); assay: Cytochrome panel assay with activity outcomes. Panel member name: p450-cyp2c19 Compounds with AC50 equal or less than 10 uM are considered active; format: functional; settings: read-out: AC50
Cytochrome P450 2C9 [5] = molecular target: T1, Cytochrome P450 2C9 (Homo sapiens, UniProt P11712)
Cytochrome P450 3A4 = Cytochrome P450 3A4 (Homo sapiens, UniProt P08684);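 also: CYP3A4 tested as one member of a cytochrome P450 panel screen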
Cytochrome P450 1A2 = molecular target: T2, Cytochrome P450 1A2 (Homo sapiens, UniProt P05177);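 also: PubChem cytochrome P450 panel assay, CYP1A2 panel member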
T2 sequence (P05177 whole entry): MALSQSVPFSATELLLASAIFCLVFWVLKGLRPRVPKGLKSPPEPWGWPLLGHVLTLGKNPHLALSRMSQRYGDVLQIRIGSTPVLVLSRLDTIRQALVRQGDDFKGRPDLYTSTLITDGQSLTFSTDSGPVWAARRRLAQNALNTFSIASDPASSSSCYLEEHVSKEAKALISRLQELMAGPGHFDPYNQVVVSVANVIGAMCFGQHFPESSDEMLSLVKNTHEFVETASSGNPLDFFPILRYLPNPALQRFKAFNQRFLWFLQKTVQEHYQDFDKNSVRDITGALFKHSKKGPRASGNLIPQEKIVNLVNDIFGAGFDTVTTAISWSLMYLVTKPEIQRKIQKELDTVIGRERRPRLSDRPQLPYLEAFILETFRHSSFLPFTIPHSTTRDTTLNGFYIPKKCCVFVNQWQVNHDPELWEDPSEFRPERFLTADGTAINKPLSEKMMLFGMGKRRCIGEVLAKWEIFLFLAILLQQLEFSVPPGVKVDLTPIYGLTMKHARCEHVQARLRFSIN

Cytochrome P450 2C9 [6] = molecular target: T1, Cytochrome P450 2C9; remark: listed apart in the source
Cysteine protease ATG4B = molecular target: T3, Cysteine protease ATG4B (Homo sapiens, UniProt Q9Y4P1); format: functional;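 also: Fluorescence-based dose-response confirmation assay measuring inhibition of ATG4B activity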
T3 sequence (Q9Y4P1 whole entry): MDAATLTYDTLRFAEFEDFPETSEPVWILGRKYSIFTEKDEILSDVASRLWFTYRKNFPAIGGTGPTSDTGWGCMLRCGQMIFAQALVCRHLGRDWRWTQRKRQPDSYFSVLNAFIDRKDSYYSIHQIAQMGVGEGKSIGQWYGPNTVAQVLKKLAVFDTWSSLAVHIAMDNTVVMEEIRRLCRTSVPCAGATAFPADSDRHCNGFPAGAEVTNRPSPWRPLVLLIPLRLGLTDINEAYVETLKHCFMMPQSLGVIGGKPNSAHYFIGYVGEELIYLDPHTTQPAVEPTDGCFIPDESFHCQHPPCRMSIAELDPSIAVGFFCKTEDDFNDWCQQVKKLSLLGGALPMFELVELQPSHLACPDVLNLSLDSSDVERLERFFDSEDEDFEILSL

Phospholipase A2 = Phospholipase A2 (Homo sapiens, UniProt P04054); format: functional;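 also: confirmatory dose-response counterscreen on phospholipase A2, testing hits that came from an ultra-high-throughput screen for ATG4B inhibitors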
[7] = Trypanosoma cruzi growth suppression in host cells – NIH3T3 host cells, beta-gal luminescence, confirmation (AID 2044); format: functional, cell-based;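 also: intracellular parasites grown in NIH/3T3 mouse fibroblasts as host cells; luminescent beta-galactosidase reporter signal from transgenic T. cruzi replicating inside host cells; inhibitors lower the luminescence signal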
[8] = NIH3T3 cell viability loss – ATP luminescence, mouse fibroblasts, counter-screen, dose response (AID 2010); format: functional, cell-based;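 also: cells exposed to compound for about 90 hours before reading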
cells = format: functional
[9] = molecular target: Heat shock protein HSP 90-alpha (Homo sapiens, UniProt P07900); format: functional, organism-based
[10] = tested on: Streptococcus sp. 'group A'; assay: Streptococcus pyogenes SK(-)GAS viability under kanamycin – luminescence, BacTiterGlo, confirmation, counter-screen for streptokinase expression inhibitor project, dose response (AID 1900); format: functional, organism-based
Streptokinase A = molecular target: T4, Streptokinase A (Streptococcus pyogenes serotype M1, UniProt P10520); assay: viability-normalized secreted streptokinase activity reduction – plasminogen activation absorbance, OD405, dose response (AID 1914); format: functional, Streptococcus pyogenes M1 GAS;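 also: secreted streptokinase activity via plasminogen activation per viability signal from cell pellet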
T4 sequence (P10520 whole entry): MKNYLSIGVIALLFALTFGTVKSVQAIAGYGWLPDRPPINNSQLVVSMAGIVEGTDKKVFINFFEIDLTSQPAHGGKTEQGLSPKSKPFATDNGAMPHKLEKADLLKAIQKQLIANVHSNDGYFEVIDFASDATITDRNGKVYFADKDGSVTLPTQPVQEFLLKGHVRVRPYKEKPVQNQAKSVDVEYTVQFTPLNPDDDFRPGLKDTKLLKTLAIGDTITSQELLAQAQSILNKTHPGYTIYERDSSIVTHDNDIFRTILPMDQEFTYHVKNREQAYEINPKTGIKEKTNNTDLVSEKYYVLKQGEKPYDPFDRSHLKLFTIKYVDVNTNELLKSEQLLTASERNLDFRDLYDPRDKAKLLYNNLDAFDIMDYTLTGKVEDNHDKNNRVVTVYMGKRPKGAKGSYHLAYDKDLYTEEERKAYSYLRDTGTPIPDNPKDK

Streptococcus = assay: GAS UMAA2166 growth inhibition – luminescence, BacTiterGlo, counter-screen for streptokinase expression inhibitor project, dose response (AID 1915); format: functional, organism-based;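 also: potency for reduction of bacterial viability or growth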
[11] = molecular target: T5, Carboxy-terminal domain RNA polymerase II polypeptide A small phosphatase 1 (Homo sapiens, UniProt Q9GZU7); assay: CTDSP1 inhibitors, concentration-response, biochemical, absorbance readout, ultra-high-throughput screen actives (AID 540297); format: functional
T5 sequence (Q9GZU7 whole entry): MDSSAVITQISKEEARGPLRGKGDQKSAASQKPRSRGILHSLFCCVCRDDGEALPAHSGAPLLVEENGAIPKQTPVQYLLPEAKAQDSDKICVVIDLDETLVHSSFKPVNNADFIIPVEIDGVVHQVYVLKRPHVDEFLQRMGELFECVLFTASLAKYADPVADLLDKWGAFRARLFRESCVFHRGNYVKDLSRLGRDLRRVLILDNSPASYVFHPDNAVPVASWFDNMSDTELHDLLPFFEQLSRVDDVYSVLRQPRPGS

Chain of Cytochrome P450 3A4 (P08684 whole entry): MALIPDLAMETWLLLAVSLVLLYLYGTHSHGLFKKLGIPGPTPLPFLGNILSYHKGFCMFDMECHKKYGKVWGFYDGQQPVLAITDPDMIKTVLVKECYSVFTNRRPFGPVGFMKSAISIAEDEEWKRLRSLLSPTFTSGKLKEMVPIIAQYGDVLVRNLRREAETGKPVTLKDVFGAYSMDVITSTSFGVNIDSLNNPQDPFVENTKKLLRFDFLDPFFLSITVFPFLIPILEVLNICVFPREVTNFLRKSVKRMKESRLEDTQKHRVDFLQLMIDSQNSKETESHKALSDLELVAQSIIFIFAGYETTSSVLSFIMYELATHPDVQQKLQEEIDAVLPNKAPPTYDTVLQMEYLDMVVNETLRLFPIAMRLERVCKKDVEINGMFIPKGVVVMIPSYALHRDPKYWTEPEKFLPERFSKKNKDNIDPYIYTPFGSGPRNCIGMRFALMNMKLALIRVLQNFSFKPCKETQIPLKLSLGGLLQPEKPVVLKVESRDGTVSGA
T1 sequence (P11712 whole entry): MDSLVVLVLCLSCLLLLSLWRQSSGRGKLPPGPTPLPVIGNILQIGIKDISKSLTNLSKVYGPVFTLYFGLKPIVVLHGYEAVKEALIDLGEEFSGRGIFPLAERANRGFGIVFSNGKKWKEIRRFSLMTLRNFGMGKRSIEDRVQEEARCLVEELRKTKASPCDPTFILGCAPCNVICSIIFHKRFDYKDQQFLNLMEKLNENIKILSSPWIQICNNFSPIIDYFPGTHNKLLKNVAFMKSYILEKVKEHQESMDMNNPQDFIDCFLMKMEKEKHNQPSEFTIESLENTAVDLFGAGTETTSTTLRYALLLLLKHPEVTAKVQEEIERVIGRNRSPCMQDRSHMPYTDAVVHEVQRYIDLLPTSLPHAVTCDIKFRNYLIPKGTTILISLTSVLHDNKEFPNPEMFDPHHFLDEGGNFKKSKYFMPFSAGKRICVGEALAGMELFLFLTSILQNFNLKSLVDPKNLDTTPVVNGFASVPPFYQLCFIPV
Chain of Genome polyprotein (P29990 2492-3391 limits assumed): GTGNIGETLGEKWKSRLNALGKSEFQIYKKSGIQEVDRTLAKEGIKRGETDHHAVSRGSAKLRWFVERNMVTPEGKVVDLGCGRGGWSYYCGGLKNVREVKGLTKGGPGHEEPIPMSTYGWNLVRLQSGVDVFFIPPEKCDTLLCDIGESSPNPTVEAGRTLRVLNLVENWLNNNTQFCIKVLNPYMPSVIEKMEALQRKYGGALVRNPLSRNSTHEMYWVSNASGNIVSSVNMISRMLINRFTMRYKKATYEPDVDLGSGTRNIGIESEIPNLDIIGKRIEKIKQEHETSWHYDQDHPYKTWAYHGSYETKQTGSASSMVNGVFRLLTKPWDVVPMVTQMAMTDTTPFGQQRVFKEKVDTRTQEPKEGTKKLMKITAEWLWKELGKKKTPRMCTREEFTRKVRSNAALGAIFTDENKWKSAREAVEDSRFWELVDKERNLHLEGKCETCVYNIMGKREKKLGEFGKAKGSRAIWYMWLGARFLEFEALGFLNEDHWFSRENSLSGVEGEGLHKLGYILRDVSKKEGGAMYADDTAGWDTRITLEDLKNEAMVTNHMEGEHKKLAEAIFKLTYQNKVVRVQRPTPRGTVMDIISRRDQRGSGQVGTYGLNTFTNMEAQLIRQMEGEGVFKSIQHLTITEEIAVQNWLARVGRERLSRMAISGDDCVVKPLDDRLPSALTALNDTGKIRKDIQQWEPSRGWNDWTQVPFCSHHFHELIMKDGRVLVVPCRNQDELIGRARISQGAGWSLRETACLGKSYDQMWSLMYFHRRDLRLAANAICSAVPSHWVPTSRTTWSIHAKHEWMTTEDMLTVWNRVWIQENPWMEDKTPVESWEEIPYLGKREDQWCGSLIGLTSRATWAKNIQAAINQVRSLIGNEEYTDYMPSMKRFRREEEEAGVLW
Chain of Cytochrome P450 2C19 (P33261 whole entry): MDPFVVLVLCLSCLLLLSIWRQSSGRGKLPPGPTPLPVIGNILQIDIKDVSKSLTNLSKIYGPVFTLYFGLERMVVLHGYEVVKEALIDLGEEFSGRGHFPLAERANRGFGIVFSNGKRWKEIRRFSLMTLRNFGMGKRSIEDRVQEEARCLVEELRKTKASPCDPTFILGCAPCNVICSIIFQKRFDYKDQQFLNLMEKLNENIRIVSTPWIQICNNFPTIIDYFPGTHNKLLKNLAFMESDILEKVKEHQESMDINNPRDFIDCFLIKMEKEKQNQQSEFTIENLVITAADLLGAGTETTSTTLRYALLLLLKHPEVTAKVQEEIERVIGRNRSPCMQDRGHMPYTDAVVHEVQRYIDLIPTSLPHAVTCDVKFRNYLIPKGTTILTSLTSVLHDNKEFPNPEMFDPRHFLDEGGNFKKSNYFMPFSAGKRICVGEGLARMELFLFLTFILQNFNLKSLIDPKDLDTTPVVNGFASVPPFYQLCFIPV
Chain of Phospholipase A2 (P04054 whole entry): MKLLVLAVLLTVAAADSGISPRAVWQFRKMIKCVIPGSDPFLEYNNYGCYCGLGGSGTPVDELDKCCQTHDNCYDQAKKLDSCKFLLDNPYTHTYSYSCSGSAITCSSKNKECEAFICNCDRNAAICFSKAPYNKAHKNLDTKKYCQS

Q: Which results are given for `COc1ccccc1[C@@H]1C(c2ccc(F)cc2)=NN(c2ccccc2)[C@H]1C(=O)N1CCOC1=O`?
A: AC50 [1]: 3.59 µM (active); AC50 [2]: 7.77 µM (active); AC50 [3]: 7.61 µM (active); AC50 [4]: 12.6 µM (active)

Q: With `O=c1nc2n(c(O)c1C(c1ccc(O)cc1)c1c(O)nc3n(c1=O)CCS3)CCS2` (stereo not given) as the compound, how does the IC50 (Genome polyprotein) read?
A: 48.5 µM (active)

Q: Which AC50 (Cytochrome P450 2C19) does the source give for `COc1ccc2c(Cl)cc(NC(=S)Nc3ccccc3)nc2c1` here?
A: 3.16 µM (inconclusive)

Q: And the AC50 (Cytochrome P450 2C9 [5])?
A: 3.98 µM (inconclusive)

Q: And the AC50 (Cytochrome P450 3A4)?
A: inconclusive

Q: For `Cc1ccc(OCC(=O)NNC(=O)c2cc3ccccc3o2)cc1C`, which AC50 (Cytochrome P450 2C19) is on record?
A: 3.55 µM (inconclusive)

Q: What about the AC50 (Cytochrome P450 1A2) of the same compound?
A: 2.51 µM (inconclusive)

Q: What about the AC50 (Cytochrome P450 2C9 [6]) of the same compound?
A: inconclusive

Q: Which results are given for `Cn1cccc1C(=O)N1CCC2(CC1)CCN(c1ccccc1)CC2`?
A: AC50 (Cytochrome P450 1A2): 12.6 µM (inconclusive); AC50 (Cytochrome P450 3A4): inconclusive

Q: For `Cc1sc2nc(C(C)C)nc(SCC(=O)NCc3ccco3)c2c1C`, which IC50 (Cysteine protease ATG4B) is on record?
A: 11.1 µM (active)

Q: And the IC50 (Phospholipase A2)?
A: 5.93 µM (active)

Q: For `CCOC(=O)c1ccc2nc(C)c(CCC(C)=O)c(Cl)c2c1`, which AC50 (Cytochrome P450 2C9 [5]) is on record?
A: 1 µM (inconclusive)

Q: And the AC50 (Cytochrome P450 3A4)?
A: inconclusive

Q: For `COc1ccc(OC)c(N2C(=O)NC(=O)/C(=C/c3ccc([N+](=O)[O-])s3)C2=O)c1`, which EC50 [7] is on record?
A: 2.1 µM (active)

Q: And the EC50 [8]?
A: > 60 µM (inconclusive)

Q: What about the IC50 (cells) of the same compound?
A: 23.7 µM (active)

Q: And the AC50 [9]?
A: 3.06 µM (active)

Q: And the IC50 (Genome polyprotein)?
A: 18.8 µM (active)

Q: What does the source list for `CCC[N+]1(CC#CC2(O)CCCCC2)CCOCC1`?
A: EC50 [10]: > 150 µM (not active); EC50 (Streptokinase A): > 150 µM (not active); EC50 (Streptococcus): > 150 µM (not active); IC50 [11]: 5.44 µM (active)

Q: For `Cc1cccc(N2C(=O)N3[C@H](c4ccc(Br)cc4)[C@@H]4C(=O)N(C(C)(C)C)C(=O)[C@@H]4[C@]3(C)C2=O)c1`, which AC50 [1] is on record?
A: 0.48 µM (active)

Q: What about the AC50 [2] of the same compound?
A: 0.746 µM (active)

Q: What about the AC50 [3] of the same compound?
A: 0.936 µM (active)

Q: What about the AC50 [4] of the same compound?
A: 1.69 µM (active)
